Tests used:
Conditions in all cases: 72 h
[1] = system: Caco-2; experiment: cell viability relative to DMSO; higher = less toxic
[2] = system: Calu-3; experiment: as above
[3] = system: Vero E6; experiment: as above
[4] = system: U2OS; experiment: as above
[5] = system: HepG2; experiment: as above
[6] = system: Caco-2; experiment: drug sensitivity score (DSS) for viability; higher = more toxic; extreme values may be limits of the assay
[7] = system: Calu-3; experiment: as above
[8] = system: Vero E6; experiment: as above
[9] = system: U2OS; experiment: as above
[10] = system: HepG2; experiment: as above
[11] = system: Caco-2; experiment: relative viability EC50 (midpoint between 100% and the lowest measured viability); higher = less toxic
[12] = system: Calu-3; experiment: as above
[13] = system: Vero E6; experiment: as above
[14] = system: U2OS; experiment: as above
[15] = system: HepG2; experiment: as above

| Compound | cell viability ([1]; 1 nM) [%] | cell viability ([1]; 10 nM) [%] | cell viability ([1]; 100 nM) [%] | cell viability ([1]; 1000 nM) [%] | cell viability ([1]; 10000 nM) [%] | cell viability ([2]; 1 nM) [%] | cell viability ([2]; 10 nM) [%] | cell viability ([2]; 100 nM) [%] | cell viability ([2]; 1000 nM) [%] | cell viability ([2]; 10000 nM) [%] | cell viability ([3]; 1 nM) [%] | cell viability ([3]; 10 nM) [%] | cell viability ([3]; 100 nM) [%] | cell viability ([3]; 1000 nM) [%] | cell viability ([3]; 10000 nM) [%] | cell viability ([4]; 1 nM) [%] | cell viability ([4]; 10 nM) [%] | cell viability ([4]; 100 nM) [%] | cell viability ([4]; 1000 nM) [%] | cell viability ([4]; 10000 nM) [%] | cell viability ([5]; 1 nM) [%] | cell viability ([5]; 10 nM) [%] | cell viability ([5]; 100 nM) [%] | cell viability ([5]; 1000 nM) [%] | cell viability ([5]; 10000 nM) [%] | drug sensitivity score [6] | drug sensitivity score [7] | drug sensitivity score [8] | drug sensitivity score [9] | drug sensitivity score [10] | relative viability EC50 [11] [µM] | relative viability EC50 [12] [µM] | relative viability EC50 [13] [µM] | relative viability EC50 [14] [µM] | relative viability EC50 [15] [µM] |
| --- | --- | --- | --- | --- | --- | --- | --- | --- | --- | --- | --- | --- | --- | --- | --- | --- | --- | --- | --- | --- | --- | --- | --- | --- | --- | --- | --- | --- | --- | --- | --- | --- | --- | --- | --- |
| CNC(=O)c1ccc(Nc2ncc(C(F)(F)F)c(NCc3nccnc3N(C)S(C)(=O)=O)n2)cc1 [defactinib] | 95.4 | 101 | 90.1 | 100 | 89.9 | 97.5 | 86.2 | 106 | 88.1 | 95.6 | 106 | 99.8 | 101 | 84.2 | 76 | 98.2 | 100 | 93.8 | 96.5 | 75 | 100 | 95.2 | 107 | 81.4 | 68.1 | 0 | 0 | 2.6 | 1.5 | 3.6 | > 10 | > 10 | > 10 | > 10 | – |
| CCOc1ccc2nc3cc(N)ccc3c(N)c2c1 [ethacridine-lactate-monohydrate] | 97.4 | 104 | 101 | 110 | 95.4 | – | – | – | – | – | 102 | 101 | 100 | 102 | 97.2 | 106 | 105 | 104 | 105 | 55.6 | 115 | 131 | 124 | 96.6 | 25.4 | 0 | – | 0 | 1.9 | 4.6 | > 10 | – | > 10 | – | 2.82 |
| CC(=O)O[C@]1(C(C)=O)CC[C@H]2[C@@H]3CCC4=CC(=O)CC[C@]4(C)[C@H]3CC[C@@]21C [hydroxyprogesterone-acetate] | 95.8 | 98.6 | 90.2 | 104 | 98.9 | 103 | 115 | 91.3 | 95.7 | 93.8 | – | – | – | – | – | 99.2 | 101 | 106 | 99.9 | 98.7 | 98.7 | 95.5 | 110 | 90.3 | 102 | 0 | 0 | – | 0 | 0 | > 10 | > 10 | – | > 10 | > 10 |
| N=C(N)c1ccc(/C=C/c2ccc(C(=N)N)cc2O)cc1 [hydroxystilbamidine] | 97.7 | 99.2 | 103 | 104 | 93.7 | 110 | 107 | 101 | 102 | 97.3 | 96.7 | 100 | 101 | 97.5 | 89.4 | 98 | 95.6 | 96.2 | 98.6 | 106 | 108 | 96.6 | 93.1 | 95.5 | 56.2 | 0 | 0 | 0 | 0 | 3 | > 10 | > 10 | > 10 | > 10 | – |
| C#Cc1cccc(Nc2ncnc3cc4c(cc23)OCCOCCOCCO4)c1 [icotinib] | 104 | 100 | 98.5 | 87.4 | 90.7 | 93.8 | 104 | 90.2 | 66.1 | 50.8 | 91.5 | 100 | 92 | 81.8 | 66.9 | 96.4 | 95.6 | 98.1 | 93.7 | 96.6 | 86.4 | 103 | 87.7 | 102 | 99.4 | 0.8 | 7.2 | 3.5 | 0 | 0 | > 10 | – | – | > 10 | > 10 |
| CS(=O)(=O)CCNCc1ccc(-c2ccc3ncnc(Nc4ccc(OCc5cccc(F)c5)c(Cl)c4)c3c2)o1 [lapatinib] | 100 | 93.7 | 90.1 | 77.3 | 62.8 | 102 | 89.6 | 74.2 | 35.8 | 24.5 | 96.9 | 100 | 92.4 | 74.6 | 51.5 | 98.4 | 93.6 | 94 | 92.3 | 74.9 | 98 | 107 | 104 | 112 | 89.1 | 4.8 | 15.1 | 5.5 | 1.4 | 0 | – | 0.176 | – | – | > 10 |
| Cc1ccccc1C(OCCN(C)C)c1ccccc1 (centres undefined) [orphenadrine] | 99.9 | 93.6 | 94.3 | 98.7 | 95.5 | 99.5 | 103 | 106 | 102 | 92.9 | – | – | – | – | – | 106 | 97.7 | 95.5 | 97.5 | 97.8 | 102 | 108 | 90.7 | 105 | 109 | 0 | 0 | – | 0 | 0 | > 10 | > 10 | – | > 10 | > 10 |
| CCCCCCCCCCCCCCCCCCCCCCCCC(=O)O [pentacosanoic-acid] | 99.2 | 106 | 103 | 96.8 | 101 | 91.9 | 97.1 | 92.5 | 92.2 | 102 | – | – | – | – | – | 98.3 | 98.5 | 97.4 | 95.9 | 106 | 112 | 109 | 98 | 102 | 111 | 0 | 0 | – | 0 | 0 | > 10 | > 10 | – | > 10 | > 10 |
| O=C1c2ccccc2C(=O)C1c1ccccc1 [phenindione] | 88.5 | 89.3 | 99.4 | 94.1 | 101 | 108 | 85.4 | 100 | 95.2 | 106 | – | – | – | – | – | 105 | 97.9 | 103 | 99.3 | 102 | 89.4 | 110 | 93.7 | 98.5 | 101 | 0 | 0 | – | 0 | 0 | > 10 | > 10 | – | > 10 | > 10 |
| C=Cc1cc(O)cc2nc(-c3ccc(O)c(F)c3)oc12 [prinaberel] | 95.5 | 99.7 | 88.7 | 90 | 91.9 | 96.8 | 104 | 95.3 | 95.9 | 93.4 | 103 | 99.9 | 98 | 100 | 95.5 | 100 | 101 | 94.6 | 98.6 | 96.9 | 102 | 104 | 93.4 | 103 | 74.6 | 0.7 | 0 | 0 | 0 | 0.8 | > 10 | > 10 | > 10 | > 10 | – |
| CC(C)c1nc(N(C)S(C)(=O)=O)nc(-c2ccc(F)cc2)c1/C=C/[C@@H](O)C[C@@H](O)CC(=O)O [rosuvastatin] | 103 | 105 | 100 | 101 | 83.7 | 98.5 | 91.3 | 101 | 105 | 103 | 101 | 97.9 | 99.6 | 100 | 72.7 | 101 | 96.7 | 102 | 99.5 | 98 | 109 | 110 | 98.4 | 106 | 96.1 | 0.3 | 0 | 1.1 | 0 | 0 | > 10 | > 10 | – | > 10 | > 10 |
| Cc1ccc(C(=O)Nc2ccc(S(=O)(=O)O)c3cc(S(=O)(=O)O)cc(S(=O)(=O)O)c23)cc1NC(=O)c1cccc(NC(=O)Nc2cccc(C(=O)Nc3cc(C(=O)Nc4ccc(S(=O)(=O)O)c5cc(S(=O)(=O)O)cc(S(=O)(=O)O)c45)ccc3C)c2)c1 [suramin] | 93.5 | 94.5 | 99 | 90.9 | 97.5 | 96.3 | 101 | 94.8 | 103 | 111 | – | – | – | – | – | 99.9 | 94.7 | 99.4 | 96.7 | 100 | 97.4 | 109 | 102 | 103 | 91.8 | 0 | 0 | – | 0 | 0 | > 10 | > 10 | – | > 10 | > 10 |
| CC1(C)S[C@@H]2[C@H](NC(=O)[C@H](C(=O)O)c3ccsc3)C(=O)N2[C@H]1C(=O)O [ticarcillin] | 103 | 97.6 | 91.1 | 102 | 93.6 | 91.5 | 106 | 109 | 97.7 | 103 | – | – | – | – | – | 101 | 100 | 98.6 | 98.1 | 101 | 106 | 97.3 | 87.7 | 102 | 88.8 | 0 | 0 | – | 0 | 0 | > 10 | > 10 | – | > 10 | > 10 |
| Cn1cncc1[C@@](N)(c1ccc(Cl)cc1)c1ccc2c(c1)c(-c1cccc(Cl)c1)cc(=O)n2C [tipifarnib] | 86.5 | 90.7 | 80.3 | 73.1 | 59.9 | 88.7 | 92.1 | 81.6 | 63.2 | 54.5 | 103 | 94.2 | 95.1 | 82.7 | 76.9 | 95.3 | 96.7 | 88.9 | 70.9 | 53.9 | 98.4 | 95.2 | 74.3 | 63.5 | 23.3 | 7.8 | 8.9 | 2.5 | 6.4 | 10.6 | – | – | > 10 | – | 0.532 |
| NC(=S)N/N=C/c1ncccc1N [triapine] | 97.2 | 98.7 | 95.3 | 92.1 | 68.6 | 106 | 94.1 | 101 | 101 | 70.5 | 97 | 98.3 | 98.1 | 92.3 | 50.3 | 96.8 | 99.6 | 95.8 | 102 | 72.8 | 103 | 97.7 | 119 | 93 | 30.6 | 2.4 | 1.2 | 3.9 | 1 | 5 | – | – | – | – | 2.34 |

Source: the supplement of paper PMC13380429
